The record followed here is ChEMBL document CHEMBL1126669, “A remarkable change of opioid receptor selectivity on the attachment of a peptidomimetic kappa address element to the delta antagonist, natrindole: 5'-[N2-alkylamidino)methyl]naltrindole derivatives as a novel class of kappa opioid receptor antagonists” (J Med Chem, 1993).

Assay [1] concerns the target Kappa-type opioid receptor (Cavia porcellus) (UniProt P41144). The assay can be described thus: Ratio of IC50 of ethylketazocine (EK) in the presence (100 nM) to that of ethylketazocine (EK) alone, against kappa opioid receptor in Guinea pig ileum preparation. Type of assay: tissue-based.
In assay [2] the target is Delta-type opioid receptor (Mus musculus) (UniProt P32300). The assay can be described thus: Ratio of IC50 of [D-Ala2,D-Leu5]enkephalin (DADLE) in the presence (100 nM) to that of [(DADLE) alone, against delta opioid receptor in mouse vas deferens preparation.
In assay [3] the target is Mu-type opioid receptor (Cavia porcellus) (UniProt P97266). Briefly: Ratio of IC50 of morphine (M) in the presence (100 nM) to that of morphine (M) alone, against mu opioid receptor in Guinea pig ileum preparation. The class given is tissue-based.
The target in assay [4] is Opioid receptors; delta & kappa (Homo sapiens) (UniProt P41145+P41143). Briefly: Selectivity ratio is IC50 value of kappa-opioid receptor to that of delta-opioid receptor. Type of assay: protein assay.
The target in assay [5] is Opioid receptors; mu & kappa (Homo sapiens) (UniProt P41145+P35372). The assay can be described thus: Selectivity ratio is IC50 value of kappa-opioid receptor to that of mu-opioid receptor. The class given is protein assay.
The target of assay [6] is Kappa-type opioid receptor (Cavia porcellus, UniProt P41144). The assay can be described thus: Binding affinity for k opioid receptor was determined using [3H]U-69593 radioligand in Guinea pig brain membranes. The class given is cell membranes, Membrane.
The next assay has as its target Mu-type opioid receptor (Cavia porcellus, UniProt P97266). The assay can be described thus: Binding affinity for mu opioid receptor was determined using radioligand [3H][D-Ala2,MePhe4,Gly-ol6]enkephalin (DAMGO) in Guinea pig brain membranes. The class given is cell membranes.

Delta-type opioid receptor (Mus musculus), sequence (P32300 whole entry): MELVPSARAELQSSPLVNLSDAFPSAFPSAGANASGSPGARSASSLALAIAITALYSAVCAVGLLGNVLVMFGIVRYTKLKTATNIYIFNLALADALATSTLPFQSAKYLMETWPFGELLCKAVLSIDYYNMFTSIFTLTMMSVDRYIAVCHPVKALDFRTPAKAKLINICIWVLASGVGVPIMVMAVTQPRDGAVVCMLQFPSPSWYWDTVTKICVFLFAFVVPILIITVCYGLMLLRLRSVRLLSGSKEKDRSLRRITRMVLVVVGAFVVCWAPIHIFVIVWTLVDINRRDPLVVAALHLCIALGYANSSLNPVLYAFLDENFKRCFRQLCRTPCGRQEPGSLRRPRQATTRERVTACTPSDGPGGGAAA
Opioid receptors; delta & kappa (Homo sapiens), sequence (P41143 whole entry, looked up): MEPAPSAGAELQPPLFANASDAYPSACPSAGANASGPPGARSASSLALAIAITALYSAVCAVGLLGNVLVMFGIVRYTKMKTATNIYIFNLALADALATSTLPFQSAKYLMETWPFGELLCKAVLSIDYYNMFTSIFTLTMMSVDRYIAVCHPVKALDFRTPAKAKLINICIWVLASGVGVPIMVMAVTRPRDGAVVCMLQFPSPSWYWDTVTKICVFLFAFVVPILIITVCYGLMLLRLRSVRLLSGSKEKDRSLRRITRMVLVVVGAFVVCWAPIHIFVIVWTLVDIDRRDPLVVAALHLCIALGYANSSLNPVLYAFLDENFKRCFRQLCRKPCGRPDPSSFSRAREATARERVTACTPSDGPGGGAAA
Opioid receptors; delta & kappa (Homo sapiens), sequence (P41145 whole entry, looked up): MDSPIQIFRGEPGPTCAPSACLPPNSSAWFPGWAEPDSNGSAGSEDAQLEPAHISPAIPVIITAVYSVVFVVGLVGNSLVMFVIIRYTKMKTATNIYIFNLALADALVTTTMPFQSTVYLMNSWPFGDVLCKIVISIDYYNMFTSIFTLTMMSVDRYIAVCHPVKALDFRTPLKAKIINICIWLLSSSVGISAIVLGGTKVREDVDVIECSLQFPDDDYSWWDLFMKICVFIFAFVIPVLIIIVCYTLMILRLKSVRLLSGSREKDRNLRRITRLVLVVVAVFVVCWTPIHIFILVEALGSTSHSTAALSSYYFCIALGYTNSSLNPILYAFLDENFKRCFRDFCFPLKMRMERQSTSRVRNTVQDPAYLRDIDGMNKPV
Mu-type opioid receptor (Cavia porcellus), sequence (P97266 whole entry): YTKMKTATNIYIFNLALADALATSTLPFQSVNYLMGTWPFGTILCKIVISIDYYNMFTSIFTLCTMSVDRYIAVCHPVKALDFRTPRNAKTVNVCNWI
Opioid receptors; mu & kappa (Homo sapiens), sequence (P35372 whole entry, looked up): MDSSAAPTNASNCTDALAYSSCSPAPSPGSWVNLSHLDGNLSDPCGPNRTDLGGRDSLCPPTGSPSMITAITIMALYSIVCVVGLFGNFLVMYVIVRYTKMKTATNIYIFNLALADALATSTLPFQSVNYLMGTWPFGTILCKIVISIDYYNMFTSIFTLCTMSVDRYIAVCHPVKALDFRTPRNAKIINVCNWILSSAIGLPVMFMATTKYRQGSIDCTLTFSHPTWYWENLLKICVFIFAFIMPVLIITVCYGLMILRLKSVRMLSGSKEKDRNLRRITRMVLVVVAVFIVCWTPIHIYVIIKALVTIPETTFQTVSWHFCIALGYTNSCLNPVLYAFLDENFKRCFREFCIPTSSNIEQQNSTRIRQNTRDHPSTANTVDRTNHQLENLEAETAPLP
Opioid receptors; mu & kappa (Homo sapiens), sequence (P41145 whole entry, looked up): as the sequence (P41145 whole entry, looked up) above
Kappa-type opioid receptor (Cavia porcellus), sequence (P41144 whole entry): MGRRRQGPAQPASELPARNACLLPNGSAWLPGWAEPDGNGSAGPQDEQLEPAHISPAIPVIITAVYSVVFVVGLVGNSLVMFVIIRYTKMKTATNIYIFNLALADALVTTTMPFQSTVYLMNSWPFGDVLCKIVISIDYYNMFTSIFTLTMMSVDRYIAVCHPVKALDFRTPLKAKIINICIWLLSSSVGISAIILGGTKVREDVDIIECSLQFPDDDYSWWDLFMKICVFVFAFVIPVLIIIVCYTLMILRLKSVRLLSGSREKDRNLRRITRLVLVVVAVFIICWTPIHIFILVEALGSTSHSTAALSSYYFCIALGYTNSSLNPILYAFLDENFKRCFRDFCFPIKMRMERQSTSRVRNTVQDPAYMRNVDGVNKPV
Kappa-type opioid receptor, sequence (P41144 whole entry): as above
Mu-type opioid receptor, sequence (P97266 whole entry): as the sequence (P97266 whole entry) above

For the molecule `CCCC(=N)NCc1ccc2[nH]c3c(c2c1)C[C@@]1(O)[C@H]2Cc4ccc(O)c5c4[C@@]1(CCN2CC1CC1)C3O5` (stereo partly specified), the IC50 ratio in assay [1] was determined as 185; in assay [2], 3; in assay [3], 19.3. Further, the results for the Selectivity ratio in assay [4] and in assay [5] were 62 and 10, respectively.

As to `Oc1ccc2c3c1O[C@H]1c4[nH]c5ccccc5c4C[C@@]4(O)[C@@H](C2)N(CC2CC2)CC[C@]314`, the IC50 ratio in assay [1] came to 1.3; in assay [2], 459; in assay [3] it was 11.2.

On to `CCC(=N)NCc1ccc2[nH]c3c(c2c1)C[C@@]1(O)[C@H]2Cc4ccc(O)c5c4[C@@]1(CCN2CC1CC1)C3O5` (stereo partly specified), for which the IC50 ratio in assay [1] was found to be 159; in assay [2], 2.28; in assay [3], 11.3. Further, the Selectivity ratio in assay [4] turned out to be 69; in assay [5], 14.

Take `CCCCC(=N)NCc1ccc2[nH]c3c(c2c1)C[C@@]1(O)[C@H]2Cc4ccc(O)c5c4[C@@]1(CCN2CC1CC1)C3O5` (stereo partly specified): the values for the IC50 ratio in assay [1], in assay [2] and in assay [3] were 439, 4.71 and 15.7, respectively. For the same molecule, the Ki in assay [6] was 0.061 nM; on Mu-type opioid receptor, 3.5 nM. The Selectivity ratio stood at 93 in assay [4] and 28 in assay [5].

With `Oc1ccc2c3c1O[C@H]1c4[nH]c5c(c4C[C@@]4(O)[C@@H](C2)N(CC2CC2)CC[C@]314)C[C@@]1(O)[C@H]2Cc3ccc(O)c4c3[C@@]1(CCN2CC1CC1)[C@H]5O4` [NORBINALTORPHIMINE], the Ki in assay [6] came out at 0.28 nM.

For orientation: Ki means the dissociation constant of the complex between target and ligand, obtained from inhibition or displacement. Low readings indicate tighter binding, high ones weaker binding.
